# According to publication PMC9646841, “A bead-based GPCR phosphorylation immunoassay for high-throughput ligand profiling and GRK inhibitor screening” (Communications Biology, 2022):
# “And” between values parts separate entries of the source, which are not always exact repeats. Equal values may be shown once. Read-outs that look alike come from different tables or passages of the source.
# Legend:
# [1] = tested on: MOP (GIRK2 channel activation); test: GIRK channel membrane potential assay (G protein signaling); assay type: cell-based, mouse; details: for values normalised to 1µM DAMGO, mean: mean of replicates; for values normalised to 1µM DAMGO (individual values): single replicate values
# Description: To analyze Gi signaling, changes in membrane potential produced by activation of G protein-gated inwardly rectifying potassium channel (GIRK) were measured as previously described[50],[51]. HEK293 cells were stably transfected with HA-MOP and GFP-conjugated GIRK2 channel plasmids (OriGene). The cells were then seeded in 96-well plates and allowed to grow at 37 °C in 5% CO2 for 48 h. […] A membrane potential dye (FLIPR Membrane Potential kit BLUE, Molecular Devices R8034) was reconstituted according to the manufacturer’s instructions. To each well, 90 μl of the HBSS/HEPES buffer solution and an equal volume of the membrane potential dye were added to a final volume of 180 μl per well. The cells were then incubated at 37 °C for 45 min. Test compounds were prepared in buffer solution containing HBSS and 20 mM HEPES solution (pH 7.4) at tenfold the final concentration to be measured. […] Baseline readings were taken every 1.8 s for 1 min. […] The change in dye fluorescence was recorded for 240 s with SoftMax Pro 5.4 software. Peak fluorescence values were obtained after subtraction of baseline readings for each sample and then used to calculate concentration–response curves using Origin.
# MOP = target: T1, MOP (Mus musculus, UniProt P42866); test: [3H]DAMGO saturation binding, MOP-HEK293 membranes
# T1 construct: host or cells: HEK293 (Control-HEK293 or GRK-knockout clones), stably transfected
# T1 sequence (P42866 whole entry): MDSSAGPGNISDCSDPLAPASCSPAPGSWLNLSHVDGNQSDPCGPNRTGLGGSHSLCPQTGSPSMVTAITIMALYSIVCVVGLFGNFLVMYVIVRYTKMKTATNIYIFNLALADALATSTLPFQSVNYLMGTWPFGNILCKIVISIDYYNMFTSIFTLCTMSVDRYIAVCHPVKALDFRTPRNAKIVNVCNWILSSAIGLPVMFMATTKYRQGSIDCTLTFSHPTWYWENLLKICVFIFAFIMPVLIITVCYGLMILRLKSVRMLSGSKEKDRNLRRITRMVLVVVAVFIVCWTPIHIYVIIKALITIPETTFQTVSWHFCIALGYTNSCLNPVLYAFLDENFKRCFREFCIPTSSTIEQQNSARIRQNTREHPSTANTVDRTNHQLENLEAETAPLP
# WT-HEK293 cells = test: [3H]DAMGO saturation binding, WT-HEK293 (native) membranes
# CB2 cannabinoid receptor [2] = target: T2, CB2 cannabinoid receptor (Homo sapiens, UniProt P34972); test: pS335/pS336-CB2 7TM phosphorylation assay; assay type: cell-based; details: for pS335/pS336 (CB2 Phosphorylation Assay): raw duplicate readings
# T2 construct: host or cells: HEK293 (CB2-HEK293)
# T2 sequence (P34972 whole entry): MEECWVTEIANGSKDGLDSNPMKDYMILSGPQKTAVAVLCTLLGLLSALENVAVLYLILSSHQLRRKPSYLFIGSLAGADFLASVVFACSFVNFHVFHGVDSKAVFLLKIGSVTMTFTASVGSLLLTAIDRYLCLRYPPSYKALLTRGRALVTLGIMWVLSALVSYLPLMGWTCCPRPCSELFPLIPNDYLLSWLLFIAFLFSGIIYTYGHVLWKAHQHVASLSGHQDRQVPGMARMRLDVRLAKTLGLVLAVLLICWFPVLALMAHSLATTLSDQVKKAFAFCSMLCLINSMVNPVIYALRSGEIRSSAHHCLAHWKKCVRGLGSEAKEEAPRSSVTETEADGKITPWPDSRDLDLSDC
# CB2 cannabinoid receptor [3] = target: T2, CB2 cannabinoid receptor; test: pT338/pT339-CB2 7TM phosphorylation assay; assay type: cell-based; details: for pT338/pT339-CB2 phosphorylation (OD405): raw duplicate readings
# MOP, GRK2 = MOP, GRK2 (Mus musculus, UniProt P42866); details: for GRK2 recruitment, normalised: normalized to 10 µM DAMGO
# Sequence of MOP, GRK2 (P25098 whole entry): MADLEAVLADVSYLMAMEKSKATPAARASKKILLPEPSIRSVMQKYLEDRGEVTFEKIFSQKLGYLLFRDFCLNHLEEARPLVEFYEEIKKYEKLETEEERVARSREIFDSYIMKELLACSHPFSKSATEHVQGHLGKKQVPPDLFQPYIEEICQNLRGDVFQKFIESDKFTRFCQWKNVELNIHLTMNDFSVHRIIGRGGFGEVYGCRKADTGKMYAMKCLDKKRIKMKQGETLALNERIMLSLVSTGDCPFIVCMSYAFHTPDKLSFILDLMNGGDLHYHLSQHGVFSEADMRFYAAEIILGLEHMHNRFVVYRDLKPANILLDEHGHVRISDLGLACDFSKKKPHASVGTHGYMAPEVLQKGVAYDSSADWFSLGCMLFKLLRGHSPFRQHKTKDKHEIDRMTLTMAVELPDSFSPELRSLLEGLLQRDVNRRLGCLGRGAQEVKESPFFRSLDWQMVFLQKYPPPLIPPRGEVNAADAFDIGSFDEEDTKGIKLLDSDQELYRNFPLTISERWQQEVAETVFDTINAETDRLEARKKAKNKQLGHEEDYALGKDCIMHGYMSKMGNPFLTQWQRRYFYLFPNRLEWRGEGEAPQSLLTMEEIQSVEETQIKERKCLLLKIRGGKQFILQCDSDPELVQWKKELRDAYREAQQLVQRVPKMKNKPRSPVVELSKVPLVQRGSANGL
# Sequence of MOP, GRK2 (P42866 whole entry): as the sequence (P42866 whole entry) above
# Description: Agonist-dependent binding of GRK2/3 and arrestin1/2 to a MOP was determined using a β-galactosidase complementation assay as previously described[47]. […] Cells were plated in 48-well plates and grown for 48 h. After 60 min of agonist exposure, a cell lysis reagent was added, and luminescence was recorded with a FlexStation 3 microplate reader (Molecular Devices).
smiles,measurement,setting,value
"CN1CC[C@]23c4c5ccc(O)c4O[C@H]2[C@@H](O)C=C[C@H]3[C@H]1C5 [Morphine, morphine]","values normalised to 1µM DAMGO, mean",[1]; 1pM ligand,6.485
same,"values normalised to 1µM DAMGO, mean",[1]; 10pM ligand,6.027
same,"values normalised to 1µM DAMGO, mean",[1]; 100pM ligand,6.211
same,"values normalised to 1µM DAMGO, mean",[1]; 1nM ligand,9.125
same,"values normalised to 1µM DAMGO, mean",[1]; 5nM ligand,29.6678
same,values normalised to 1µM DAMGO (individual values),[1]; 5nM ligand,45.7495 and 19.0875 and 13.0961 and 9.052 and 36.1933 and 47.9074 and 51.2561 and 57.2816 and 46.4485 and 43.1943 and 26.9461 and 14.2883 and 14.2724 and 18.5122 and 18.46 and 12.9399
same,"values normalised to 1µM DAMGO, mean",[1]; 10nM ligand,57.2564
same,values normalised to 1µM DAMGO (individual values),[1]; 10nM ligand,58.6156 and 56.0883 and 35.9476 and 44.5152 and 64.4335 and 68.3763 and 70.0077 and 70.5635 and 61.8308 and 50.7811 and 68.4527 and 63.2893 and 55.6505 and 50.3141 and 38.9941 and 58.2419
same,"values normalised to 1µM DAMGO, mean",[1]; 50nM ligand,66.3769
same,values normalised to 1µM DAMGO (individual values),[1]; 50nM ligand,62.166 and 62.2926 and 44.6191 and 54.7318 and 72.3421 and 70.8947 and 81.0497 and 84.3524 and 69.6407 and 82.417 and 82.3952 and 62.9287 and 75.1596 and 38.3592 and 49.3923 and 69.2894
same,"values normalised to 1µM DAMGO, mean",[1]; 100nM ligand,74.2194
same,values normalised to 1µM DAMGO (individual values),[1]; 100nM ligand,89.3793 and 68.637 and 62.5767 and 14.9163 and 86.9174 and 89.8616 and 87.7405 and 94.4167 and 90.0012 and 88.0147 and 94.1235 and 58.569 and 65.3044 and 67.2492 and 54.6739 and 75.1284
same,"values normalised to 1µM DAMGO, mean",[1]; 0.5µM ligand,76.9579
same,values normalised to 1µM DAMGO (individual values),[1]; 0.5µM ligand,87.9206 and 64.7531 and 55.8615 and 55.3841 and 81.7364 and 84.8283 and 97.4763 and 95.5436 and 86.95 and 86.0094 and 85.8902 and 63.7515 and 63.5249 and 73.9389 and 76.3702 and 71.3871
same,"values normalised to 1µM DAMGO, mean",[1]; 1µM ligand,72.8983
same,values normalised to 1µM DAMGO (individual values),[1]; 1µM ligand,75.501 and 68.3564 and 51.865 and 76.6338 and 75.1014 and 79.046 and 83.5821 and 81.3432 and 80.3317 and 85.1376 and 62.4253 and 66.1705 and 66.7508 and 75.1369 and 66.0921
C[C@@H](NC(=O)[C@@H](N)Cc1ccc(O)cc1)C(=O)NCC(=O)N(C)[C@@H](Cc1ccccc1)C(=O)NCCO [[3H]DAMGO],Bmax,"MOP; 25°C, 60 min",2279 ± 19 fmol/mg protein
same,"saturation binding, mean, HEK293-MOP-HA",MOP; concentration 0.05 nM,173.5
same,"saturation binding, mean, HEK293-MOP-HA",MOP; concentration 2.05 nM,1520.4
same,"saturation binding, mean, HEK293-MOP-HA",MOP; concentration 2.57 nM,1621.54
same,"saturation binding, mean, HEK293-MOP-HA",MOP; concentration 4.21 nM,1763.3
same,"saturation binding, mean, HEK293-MOP-HA",MOP; concentration 5.23 nM,2020.39
same,"saturation binding, mean, HEK293-native",WT-HEK293 cells; concentration 0.05 nM,2.17
same,"saturation binding, mean, HEK293-native",WT-HEK293 cells; concentration 2.05 nM,2.19
same,"saturation binding, mean, HEK293-native",WT-HEK293 cells; concentration 2.57 nM,14.32
same,"saturation binding, mean, HEK293-native",WT-HEK293 cells; concentration 4.21 nM,26.91
same,"saturation binding, mean, HEK293-native",WT-HEK293 cells; concentration 5.23 nM,41.11
CCCCCCC(C)(C)c1ccc([C@@H]2C[C@H](O)CC[C@H]2CCCO)c(O)c1 [CP55940],OD405 min pS335/pS336-CB2,CB2 cannabinoid receptor [2],0.38
same,pS335/pS336 (CB2 Phosphorylation Assay),CB2 cannabinoid receptor [2]; CP55940 1e-6 µM,0.4195 and 0.458 and 0.3421
same,pS335/pS336 (CB2 Phosphorylation Assay),CB2 cannabinoid receptor [2]; CP55940 1e-5 µM,0.3429 and 0.4547 and 0.4707 and 0.3409 and 0.3589 and 0.38
same,pS335/pS336 (CB2 Phosphorylation Assay),CB2 cannabinoid receptor [2]; CP55940 0.0001 µM,0.3452 and 0.3952 and 0.4236 and 0.425 and 0.3513 and 0.3869
same,pS335/pS336 (CB2 Phosphorylation Assay),CB2 cannabinoid receptor [2]; CP55940 0.001 µM,0.3318 and 0.3924 and 0.4101 and 0.3997 and 0.3583
same,pS335/pS336 (CB2 Phosphorylation Assay),CB2 cannabinoid receptor [2]; CP55940 0.1 µM,0.8954
same,pS335/pS336 (CB2 Phosphorylation Assay),CB2 cannabinoid receptor [2]; CP55940 1 µM,1.0018 and 0.9312 and 1.0017 and 0.8185
same,pS335/pS336 (CB2 Phosphorylation Assay),CB2 cannabinoid receptor [2]; CP55940 10 µM,0.9538 and 0.8534
same,OD405 max pT338/pT339-CB2,CB2 cannabinoid receptor [3],1.74
same,pT338/pT339-CB2 phosphorylation (OD405),CB2 cannabinoid receptor [3]; CP55940 0.01 µM,0.418 and 0.427 and 0.4081 and 0.4835 and 0.513
same,pT338/pT339-CB2 phosphorylation (OD405),CB2 cannabinoid receptor [3]; CP55940 0.1 µM,0.4372 and 0.4959 and 0.4415 and 0.4741 and 0.5035 and 0.468
same,pT338/pT339-CB2 phosphorylation (OD405),CB2 cannabinoid receptor [3]; CP55940 0.3 µM,0.4559 and 0.4962 and 0.7064 and 0.6812
same,pT338/pT339-CB2 phosphorylation (OD405),CB2 cannabinoid receptor [3]; CP55940 1 µM,0.467 and 0.4332 and 0.3917 and 0.4407 and 0.4084 and 0.4786
same,pT338/pT339-CB2 phosphorylation (OD405),CB2 cannabinoid receptor [3]; CP55940 3 µM,0.4766 and 0.4184 and 0.4965 and 0.6601
same,pT338/pT339-CB2 phosphorylation (OD405),CB2 cannabinoid receptor [3]; CP55940 10 µM,1.4013 and 1.5745 and 1.5305
same,pT338/pT339-CB2 phosphorylation (OD405),CB2 cannabinoid receptor [3]; CP55940 30 µM,1.5241
same,pT338/pT339-CB2 phosphorylation (OD405),CB2 cannabinoid receptor [3]; CP55940 100 µM,1.603 and 1.5834 and 1.3626
"C[C@@H](NC(=O)[C@@H](N)Cc1ccc(O)cc1)C(=O)NCC(=O)N(C)[C@@H](Cc1ccccc1)C(=O)NCCO [DAMGO, [D-Ala^2,N-MePhe^4,Gly-ol]-enkephalin]",pEC50 GIRK,[1],8.9
same,"values normalised to 1µM DAMGO, mean",[1]; 1pM ligand,5.028
same,values normalised to 1µM DAMGO (individual values),[1]; 1pM ligand,5.593 and 7.859 and 3.46 and 5.717 and 7.582 and 8.1092 and 3.374 and 6.042 and 4.849 and 0.5787 and 7.292 and 5.88 and 8.096 and 0.05434 and -0.3462 and 6.3053
same,"values normalised to 1µM DAMGO, mean",[1]; 10pM ligand,7.472
same,values normalised to 1µM DAMGO (individual values),[1]; 10pM ligand,15.49 and 11.6111 and 4.26 and 2.279 and 5.498 and 3.993 and 8.348 and 9.984 and 18.2069 and 4.03 and 10.8569 and 5.742 and 4.237 and 3.526 and 0.4892 and 11.0085
same,"values normalised to 1µM DAMGO, mean",[1]; 100pM ligand,9.137
same,values normalised to 1µM DAMGO (individual values),[1]; 100pM ligand,16.8969 and 12.3538 and 1.282 and -0.5086 and 23.733 and 7.982 and 12.165 and 15.3952 and 18.3102 and 7.555 and 2.414 and 2.004 and 6.703 and 3.838 and 4.846 and 11.227
same,"values normalised to 1µM DAMGO, mean",[1]; 1nM ligand,50.7802
same,values normalised to 1µM DAMGO (individual values),[1]; 1nM ligand,57.1798 and 57.3562 and 19.6942 and 27.9023 and 58.4493 and 49.8324 and 71.4212 and 70.7134 and 62.495 and 60.2954 and 56.8628 and 49.7728 and 53.0466 and 27.1278 and 35.6907 and 54.6435
same,"values normalised to 1µM DAMGO, mean",[1]; 5nM ligand,92.3187
same,"values normalised to 1µM DAMGO, mean",[1]; 10nM ligand,95.5035
same,"values normalised to 1µM DAMGO, mean",[1]; 50nM ligand,101.174
same,"values normalised to 1µM DAMGO, mean",[1]; 100nM ligand,99.3452
same,values normalised to 1µM DAMGO (individual values),[1]; 100nM ligand,100.4 and 100.34 and 112.066 and 111.922
same,"values normalised to 1µM DAMGO, mean",[1]; 0.5µM ligand,99.405
same,values normalised to 1µM DAMGO (individual values),[1]; 0.5µM ligand,99.2581 and 100.369 and 110.848 and 112.015 and 90.6195 and 92.807 and 98.2073 and 99.2624 and 100.349 and 111.9 and 110.485 and 68.4902 and 89.9215 and 98.2442 and 106.456 and 101.247
same,DAMGO 1µM signal in RFU,"[1]; 1µM DAMGO, one value per experiment",38.399 RFU and 40.2317 RFU and 34.405 RFU and 46.8468 RFU and 42.8267 RFU and 41.1246 RFU and 35.6065 RFU and 41.2536 RFU
same,"values normalised to 1µM DAMGO, mean",[1]; 1µM ligand,100
same,values normalised to 1µM DAMGO (individual values),[1]; 1µM ligand,102.126 and 101.322 and 95.8603 and 104.14 and 98.9994 and 101.001 and 101.569 and 98.4312 and 97.8738 and 109.455 and 90.5448 and 97.309 and 102.691 and 100.145 and 99.8548 and 98.6775
same,"GRK2 recruitment, raw value","MOP, GRK2; agonist 0.01 µM",1.0365 and 0.9786 and 1.1651 and 0.7672
same,"GRK2 recruitment, raw value","MOP, GRK2; agonist 0.1 µM",1.7391 and 1.2836 and 1.7883 and 1.2791
same,"GRK2 recruitment, raw value","MOP, GRK2; agonist 1 µM",3.3164 and 2.1606 and 3.0001 and 2.3217
same,"GRK2 recruitment, normalised","MOP, GRK2; agonist 1 µM",102.84% and 51.53% and 88.80% and 58.68%
same,"GRK2 recruitment, raw value","MOP, GRK2; agonist 10 µM",3.4288 and 3.1599 and 2.7372 and 3.6836
same,"GRK2 recruitment, normalised","MOP, GRK2; agonist 10 µM",107.83% and 95.89% and 77.13% and 119.15%
same,"GRK2 recruitment, raw value","MOP, GRK2; agonist 100 µM",3.2449 and 4.0099 and 3.3544 and 3.8787
same,"GRK2 recruitment, normalised","MOP, GRK2; agonist 100 µM",99.67% and 133.63% and 104.53% and 127.81%
